The test system of one assay is ADAM9, 10 and 17 mRNA. The assay can be described thus: RT-PCR of ADAM9, 10 and 17 mRNA in HIV-1BAL infected PBMC. To be noted: day 3 and 6 of infected samples. It counts as cell-based, human. The method, then: RT-PCR using ADAM9, 10 and 17 primer probes was assayed using TaqMan primer/probe sets from ThermoFisher with a 50 ng cDNA template as described previously ([Chun et al., 2013]; [Kononchik et al., 2018]). The following TaqMan 20X Gene Expression Assay probes (Dye: FAM-MGB) were used: ADAM9 (Hs00177638_m1), ADAM10 (Hs00153853_m1), ADAM17 (Hs01041915_m1). Expression Assay standard probes (Dye: VIC-MGB) for β-Actin (Hs01060665_g1) or RNase P/RPPH1 (4403328) were used as gene expression controls. Briefly, HIV infected or uninfected cells from triplicate experiments were washed 3x in PBS and lysed for RNA isolation using RNeasy mini kit (QIAGEN corp). The corresponding cDNA samples were prepared using either TaqMan microRNA reverse transcription kit or Invitrogen High-Capacity cDNA reverse transcription kit (Thermo Fisher). Samples were run in duplicate across triplicate experiments on an ABI 7300 Real-Time PCR System (Applied Biosystems) with a threshold of 0.2. Relative gene expression was calculated using the 2^-ΔCt method and normalized to β-Actin or RNaseP as the endogenous controls. All statistical analyses were carried out using the software Prism 8 (GraphPad Software, Inc). Western blot analyses were used to detect the mature active form of ADAMs ([Pereira Vatanabe et al., 2021]). […]

The next assay deals with CD4 T cells. As to the kind of experiment: RNA sequencing of CD4 T cells, pathway gene expression. To be noted: compound alone. It counts as cell-based, human. The method, then: CD4+ T cells were enriched from PBMC using EasySep™ human CD4 T cell enrichment kit ([…] Technologies Inc., MA 02142). To prepare samples for RNA sequencing, 5-10×10^6 PBMC or CD4+ T cells from either infected or uninfected samples were lysed for RNA isolation using RNeasy mini kit from QIAGEN. Samples of 2–10 μg RNA with concentration > 25 ng/μl and OD260/280 > 2.0 were used for cDNA library preparation of 250–300 base pair fragments in length, and high throughput sequencing using Illumina Miseq platform by Novogene (Novogene Corp Inc., CA 91914). A total of ~20×10^6 reads were recorded for each sample (Table 3). The mapping and assembly of raw sequencing reads, statistical and preliminary bioinformatic analyses were performed by Novogene. Subsequent gene expression analyses were performed based on expected Fragments Per Kilobase of transcript sequence per Millions base pairs sequenced (FPKM) using sequences of 20 reads or higher. All differential gene expression analyses were done between infected samples in the presence or absence of treatment and their donor matched uninfected controls. […] The RNAseq data is available in GEO database under accession number GSE218175.

Each structure is given as a SMILES string.

Consider `CNC(=O)[C@H](Cc1ccccc1)NC(=O)[C@H](CC(C)C)[C@H](CSc1cccs1)C(=O)NO` [BB-94, Batimastat], for which, in the assay with ADAM9, 10 and 17 mRNA, the “HIV-1BAL induced increase of ADAM9, 10, 17 mRNA” value is “increase was not observed”. Moreover, the “transcription of type I interferon pathway genes” value with CD4 T cells (uninfected CD4 T cells) is “does not suppress the transcription of type I interferon pathway genes”. The “expressions of cell cycle genes” value in the assay on CD4 T cells (without HIV-1 infection) is on record as “decreased slightly the expressions of cell cycle genes”.

Source of the values: paper PMC10987949, “Inhibition of HIV-1 release by ADAM metalloproteinase inhibitors” (Frontiers in Microbiology, 2024).
